Assay results from patent US20250049836A1, “PRODRUGS OF DEOXYNUCLEOSIDES FOR TREATMENT OF MITOCHONDRIAL DISEASES CAUSED BY UNBALANCED NUCLEOTIDE POOLS” (UCB Biosciences, Inc., priority 2021, published 2025).

Experiments:
[1] = tested on: MPV17^−/− mice; assay: qPCR measurements of mtDNA copy number in the liver of MPV17−/− mice; type: in vivo, mouse; settings: treatment alone; summary statement
Experimental: • 2A. 2 litters from MPV17^−/− mouse (KO×KO) breeding pairs were used in the study. The experimental groups were set up as follows: • 1. - - - KO untreated (n=1) • 2. - - - KO treated with 109.35 mg/kg MT102C+104.2 mg/kg MT102G (n=3) • 3. - - - KO treated with 163.87 mg/kg MT103C+150.56 mg/kg MT103G (n=3) • 4. - - - KO treated with 75 mg/kg dC and 75 mg/kg dG (purchased from Sigma) (n=3) • 5. - - - KO treated with 144.9 mg/kg MT101G (n=2)
Treatment was started at day 7 and terminated at day 30. The treatment was performed by delivery into the oral cavity throughout the study. […] At day 30, animals were sacrificed and tissues collected. Liver, muscle, kidney, gut, heart and brain were flash frozen in liquid nitrogen. Blood was collected by heart puncture and plasma fractions stored at −80° C.
Results of qPCR measurements of mtDNA copy number in the liver tissue of treated and untreated mice are shown FIG. 7. • 2B. In order to compare results, WT (n=5), KO untreated (n=4) and KO treated with 20% MT101 (n=4) and 20% MT104 (n=4) from previous experiments were also included in the analysis. • 2C. Three other litters from KO x KO breeding pairs were used in a further study of nucleoside prodrug supplementation: • 1.—Litter 2 (L2): Born on Feb. 9, 2020 • 2.—Litter 3 (L3): Born on May 9, 2020 • 3.—Litter 4 (L4): Born on Aug. 9, 2020 […]
mtDNA copy number in liver was analyzed by RT-qPCR. […]

[2] = tested on: fibroblasts from patients with DGUOK mutations; settings: cited from earlier work
[3] = tested on: dGK mutant fish; settings: nucleoside supplementation (Munro, et al. 2019); cited from earlier work

Nc1nc2c(ncn2[C@H]2C[C@H](O)[C@@H](CO)O2)c(=O)[nH]1 [dG, 2′-deoxyguanosine]
mtDNA copy numbers in dGK or MPV17 deficiency disorders [1]: sufficient to increase mtDNA copy numbers
mtDNA depletion after quiescence, previously demonstrated ([2]; 50 μM in cell culture medium): sufficient to prevent this depletion
mtDNA copy number ([2]; 50 μm added into culture broth (Camara, et al. 2014)): sufficient to increase the mtDNA copy number
mtDNA levels in dGK mutant fish [3]: decreased mtDNA levels
